Measured values published in the METLIN SMRT retention time set (Domingo-Almenara et al. 2019).

Test: gradient 5% acetonitrile 3 min, to 50% in 2 min, to 85% in 15 min, held 3 min, 100 µL/min
Conditions: column: Zorbax Extend-C18 2.1 x 50 mm; eluents: water / acetonitrile, 0.1% formic acid
Method in brief: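 The mobile phases were water and acetonitrile, each with 0.1% formic acid, pumped at 100 μL/min through a Zorbax Extend-C18 column (2.1 × 50 mm, 1.8 μm). Pure standards were injected as mixtures of ~100 molecules and detected by a quadrupole time-of-flight mass spectrometer in positive and negative ionization mode. Retention time came from computationally picked adduct peaks, each inspected by hand.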

CCCCc1ccc(NC(=O)CSc2ccc(-c3ccncc3)nn2)cc1
RP-LC retention time: 718 s

CCCn1c(CCNC(=O)c2ccc(C#N)cc2)nc2cccnc21
RP-LC retention time: 662 s

COC(=O)C1=CN(c2ccc(N(C)C)cc2)c2ccc(F)cc2S1(=O)=O
RP-LC retention time: 730 s

Cc1ccc(-c2nc(-n3c(C)c4c(C)nnc(C)c4c3C)sc2C)cc1C
RP-LC retention time: 832 s

O=C(Nc1nccs1)C1CCN(C(=O)c2cccc(C(F)(F)F)c2)CC1
RP-LC retention time: 728 s

COc1ccc(N2CC(c3nc(-c4ccc(Cl)cc4)no3)CC2=O)c(OC)c1 (centres undefined)
RP-LC retention time: 1000 s

Cc1csc(-c2ccc(CNC(=O)c3cc4ccccc4[nH]3)cc2)n1
RP-LC retention time: 938 s

Cc1ccc(-c2cc3c(=O)n(Cc4nc(-c5ccc6c(c5)OCO6)no4)ncn3n2)c(C)c1
RP-LC retention time: 1170 s

CCOc1ccccc1-c1noc(Cn2c(=O)n(Cc3ccccc3Cl)c(=O)c3sccc32)n1
RP-LC retention time: 1160 s

CCCOc1nc2ccccc2nc1N1CCCC(C(=O)NCc2ccco2)C1 (centres undefined)
RP-LC retention time: 1100 s

Cc1cc2c(cc1CNC(=O)Cn1cc(C(=O)c3ccco3)c3ccccc31)OCCCO2
RP-LC retention time: 837 s

O=C(Cc1c[nH]c2ccccc12)N1CCC(NS(=O)(=O)c2ccc(Cl)cc2)CC1
RP-LC retention time: 829 s

O=C(CNC(=O)Cc1ccccc1)NCc1[nH]nc2ccccc12
RP-LC retention time: 648 s

CCOc1cccc(-c2noc(CN3C(=O)C(C)Oc4ccccc43)n2)c1 (centres undefined)
RP-LC retention time: 1140 s

Cc1cccc(NS(=O)(=O)c2c(C)sc(C)c2-c2n[nH]c(C)c2C)c1
RP-LC retention time: 1040 s

Cc1oc(C2CCN(C(=O)c3ccc(C#N)cc3)CC2)nc1C(=O)N(C)C
RP-LC retention time: 654 s

CCc1ccc(CNC(=O)Cc2c(C(=O)O)c(C)cn2CC)cc1
RP-LC retention time: 842 s

COCCNc1c(-c2ccc(F)cc2)nc2sc(C(=O)NCc3cccnc3)c(C)n12
RP-LC retention time: 631 s

CCOC(=O)C(CC)n1nc2nc(Nc3ccc(C)cc3)cc(C)n2c1=O (centres undefined)
RP-LC retention time: 1230 s

CN(C)CCNC(=O)C1CCN(c2nc3ccc(-c4ccc(F)cc4)nc3s2)CC1
RP-LC retention time: 686 s

CC(C)CN1CCN(Cc2nc(-c3ccc(N4CCCCC4)nc3)no2)CC1
RP-LC retention time: 596 s

COC(=O)c1[nH]c(C)c(CN(C)C(=O)c2ccc(Br)cc2)c1C
RP-LC retention time: 876 s

CCn1cnc2ccc(-c3noc(COc4cccc(C)c4)n3)cc21
RP-LC retention time: 808 s

O=C(Cn1c(-c2cccs2)cc2cc(Cl)ccc21)N1CCN(c2ccccn2)CC1
RP-LC retention time: 809 s

CCOc1ccccc1NC(=O)N1CCCC(C)(C(=O)NCc2cccc(OC)c2)C1 (centres undefined)
RP-LC retention time: 958 s

CCCNC(=O)C1CCN(c2ccc(SCC(=O)Nc3cc(Cl)ccc3OC)nn2)CC1
RP-LC retention time: 730 s

Cc1ccc2c(c1)N(Cc1ccccc1C)N=C(C(=O)N1CCCCC1)S2(=O)=O
RP-LC retention time: 1040 s

CCNC(=O)C1CCCN(c2nc3ncn(CC(=O)Nc4c(C)cccc4CC)c(=O)c3s2)C1 (centres undefined)
RP-LC retention time: 703 s

CC(C)c1noc(C2CCCN(S(=O)(=O)c3cccs3)CCC(=O)NCC2)n1 (centres undefined)
RP-LC retention time: 787 s

CCCNC(=O)C1CCN(c2nccnc2Sc2cccc(C)c2)CC1
RP-LC retention time: 946 s

O=C(CCCc1ccccc1)NC1CCN(c2nnc3ccc(Cl)cn23)CC1
RP-LC retention time: 639 s

COCC(=O)N1CCc2c([nH]c3ccccc23)C1c1ccc(SC)cc1 (centres undefined)
RP-LC retention time: 998 s

CCN(CC)C(=O)c1ccc(-c2nc3cc(NS(=O)(=O)c4ccc(F)cc4)ccc3n2C)cc1
RP-LC retention time: 699 s

COc1ccc(-n2c(CN3CCN(C(=O)NC(C)(C)C)CC3)nc3cccnc32)cc1
RP-LC retention time: 640 s

CCOc1cc(=O)n2c(c1C(=O)NCc1ccc3c(c1)OCO3)CCCC2
RP-LC retention time: 707 s

Cc1ccc(S(=O)(=O)CC(=O)Nc2nc(-c3ccccc3)cs2)cc1
RP-LC retention time: 933 s

CC(C)CN(C1CCOCC1)C1CN(C(=O)c2cnccn2)C1
RP-LC retention time: 556 s

COc1ccc(C(=O)N2CCC3(CC2)NC(=O)c2ccccc2N3C)cc1OC
RP-LC retention time: 676 s

O=C(Nc1ccccc1)c1cn2c(n1)CCCC2
RP-LC retention time: 577 s

O=C(NCc1ccc(F)cc1)N1CCc2nc[nH]c2C1
RP-LC retention time: 574 s

COc1ccc(NC(=O)C2(C)Oc3cccnc3N(C(C)C)C2=O)cc1 (centres undefined)
RP-LC retention time: 918 s

CCOc1ccc(CNC(=O)C2CCCN(c3nccnc3Oc3ccc(C)cc3)C2)cc1OCC (centres undefined)
RP-LC retention time: 1070 s

COc1cccc(NC(=O)CN2CCc3c(c(=O)c4cc(C)ccc4n3C)C2)c1
RP-LC retention time: 609 s

CCCn1c(=O)sc2cc(S(=O)(=O)N3CCC(C(=O)Nc4ccccc4OC)CC3)ccc21
RP-LC retention time: 1000 s

Cc1noc(C2CN(C(=O)Nc3c(C)cccc3C)CC23CCOCC3)n1 (centres undefined)
RP-LC retention time: 693 s

COc1ccc(OC)c(NC(=O)N2CCCC(Cn3cnc4cccnc43)C2)c1 (centres undefined)
RP-LC retention time: 682 s

O=S(=O)(Nc1cc(-c2ccoc2)no1)c1ccc2c(c1)CCC2
RP-LC retention time: 921 s

COc1ccc(-c2nc3ncccn3c2NCc2ccccc2)cc1OC
RP-LC retention time: 682 s

COc1ccc(-c2cn3c(CC(=O)N4CCc5ccccc5C4)csc3n2)cc1OC
RP-LC retention time: 754 s

CCOC(=O)C1CCN(C(=O)c2nc3ccccn3c2-c2ccsc2)CC1
RP-LC retention time: 664 s

O=C1NCCCn2cc(S(=O)(=O)NCc3ccc4c(c3)OCO4)cc21
RP-LC retention time: 640 s

CC(C)NC(=O)c1ncn2c1C(=O)N(C1CC1)C(C)(C(=O)NCc1ccc(F)cc1)C2 (centres undefined)
RP-LC retention time: 673 s

Cc1ccc(CNC(=O)c2nnc(-c3ccc(S(=O)(=O)N(C)C)cc3)o2)o1
RP-LC retention time: 826 s

COC(=O)c1cc2c(=O)n(-c3nc4ccc(Cl)cc4s3)ccc2nc1C
RP-LC retention time: 1350 s

CCCCN(C)C(=O)CC1Sc2ncccc2N(CC(C)C)C1=O (centres undefined)
RP-LC retention time: 876 s

CCCOc1nc2c(c(=O)n(C)c(=O)n2C)n1C
RP-LC retention time: 788 s

CCc1ccc(CNC(=O)CCc2nc(N3CCCC3)c3c(C)noc3n2)cc1
RP-LC retention time: 865 s

O=C1NC(C(=O)NCC2CC2)Cn2cccc21 (centres undefined)
RP-LC retention time: 602 s

CCOc1cccc(-c2noc(Cc3nnc(-c4ccc(F)cc4)o3)n2)c1
RP-LC retention time: 1080 s

Cc1ccsc1C(=O)N1CCC(N2C(=O)C(OCC3CC3)C23CCCCC3)CC1 (centres undefined)
RP-LC retention time: 1020 s

Cn1c(=O)c2cc(C(=O)Nc3ccccc3)cnc2n(-c2ccccc2)c1=O
RP-LC retention time: 862 s

Cc1ccc(C2Cn3cnc(C(=O)N4CCC(C(=O)NCCC5=CCCCC5)CC4)c3CO2)cc1 (centres undefined)
RP-LC retention time: 819 s

O=C(NCc1ccc(F)cc1)c1ccc(-c2ccsc2)nc1
RP-LC retention time: 854 s

O=C(c1ccc(Cl)s1)N1CCC(n2cnnc2C2CC2)CC1
RP-LC retention time: 664 s

O=C(c1csc(S(=O)(=O)N2CCC(C(=O)N3CCOCC3)CC2)c1)N1CCCCCC1
RP-LC retention time: 718 s

Cn1c(SCC(=O)N2CCCC2)nnc1-c1ccc2c(c1)OCCCO2
RP-LC retention time: 661 s

O=C(Cn1ccc2ccc(N3CCOCC3)nc21)NCc1ccccc1Br
RP-LC retention time: 886 s

COC(=O)c1ccc(NC(=O)Cn2nc3nc(N4CCCC(C)C4)ccn3c2=O)cc1 (centres undefined)
RP-LC retention time: 774 s

CCC(=O)N1CCc2cc(N3CC(C(=O)Nc4ccc(C(C)=O)cc4)CC3=O)ccc21 (centres undefined)
RP-LC retention time: 717 s

C=CCN1C(=O)COc2ccc(-c3nc(NC(=O)c4ccco4)sc3C)cc21
RP-LC retention time: 903 s

O=C(Nc1ccc2c(c1)OCCO2)N1CC[C@@H]2COC(=O)N(Cc3ccccc3)[C@@H]2C1
RP-LC retention time: 724 s

CCc1nn(CC)c(=O)c2cc(S(=O)(=O)NCc3ccc(F)c(Cl)c3)cn12
RP-LC retention time: 1010 s

Cc1ccc2nc(C(=O)NCc3ccc4c(c3)OCO4)cn2c1
RP-LC retention time: 628 s

CCOC(=O)c1noc2nc(C)nc(NCCCN3CCN(c4cc(C)ccc4C)CC3)c12
RP-LC retention time: 774 s

CCCc1noc(-c2cccnc2N2CCCN(Cc3ccccc3F)CC2)n1
RP-LC retention time: 701 s

Cc1noc(C)c1CC(=O)NCc1cccnc1Oc1ccccc1
RP-LC retention time: 734 s

CCCNC(=O)C(=O)NCC(c1ccc2c(c1)CCCN2C)N1CCCC1 (centres undefined)
RP-LC retention time: 647 s

Cc1cc(N2CCN(C(=O)Nc3cccc(Cl)c3)CC2)nc(N2CCOCC2)n1
RP-LC retention time: 672 s

COc1cc(OC)c(OC)cc1/C=C\c1ccnc2ccccc12
RP-LC retention time: 679 s

COc1ccc(Cl)cc1S(=O)(=O)N1CCC(n2cnnc2C(C)C)CC1
RP-LC retention time: 732 s

CCc1noc(-c2cccnc2N2CCCN(Cc3ccc(Cl)cc3)CC2)n1
RP-LC retention time: 709 s

O=C1NC2(CCN(C(=O)c3cccc(F)c3)CC2)N=C1c1cccc(F)c1
RP-LC retention time: 821 s

COc1ccccc1C(=O)NC1CCN(c2cc(-c3ccccc3)[nH]n2)C1 (centres undefined)
RP-LC retention time: 718 s

CN1C[C@H](C(=O)N[C@]2(C)O[C@@]3(O)[C@@H]4CCCN4C(=O)[C@H](Cc4ccccc4)N3C2=O)CC2c3cccc4[nH]cc(c34)C[C@H]21 (some centres undefined)
RP-LC retention time: 683 s

COc1ccccc1C(=O)N1CCC2(C1)C(=O)Nc1ccccc12 (centres undefined)
RP-LC retention time: 672 s

CCCCN(C)S(=O)(=O)c1ccccc1-c1nc(-c2ccc(F)cc2)no1
RP-LC retention time: 1110 s

Cc1nc(N2CCN(C(=O)COc3ccc(Cl)cc3Cl)CC2)cc(-n2cccn2)n1
RP-LC retention time: 894 s

NCCNS(=O)(=O)c1cccc2c(Cl)cccc12
RP-LC retention time: 701 s

Cc1ccccc1NC(=O)C1CC(=O)N(c2n[nH]c3cccc(F)c23)C1 (centres undefined)
RP-LC retention time: 733 s
